Series [1] deals with MDCK cells. The following applies: dog, 3 days.
For series [2], the system named is influenza virus A/Taiwan/1/86 (H1N1). As to the kind of experiment: organism not typed. The class given is cell-based. The following applies: MDCK cells infected with influenza A/Taiwan/1/86 (H1N1), three days post-virus exposure, CPE by ATP levels.
The nature of series [3]: in vitro. To be noted: dog.

Consider 14 molecules from patent publication US9932346B2, “Pyrrolopyrimidines for use in influenza virus infection” (Janssen Sciences Ireland UC, priority 2014, dated 2018).

Where only a bound is given, the exact number is not on record here.

Take `Cn1cnc(C(=O)N[C@H]2CCC[C@@H](Nc3nc(-c4c[nH]c5ncncc45)ncc3F)C2)c1` [Compound 48]: in series [1], the CC50 was over 25000 nM. This molecule also showed an IC50 in series [2] of 35 nM.
`O=C(N[C@H]1CCC[C@@H](Nc2nc(-c3c[nH]c4ncncc34)ncc2F)C1)c1ccncc1` (racemic) [Compound 33]: the CC50 at 3 days in series [3] was over 100000 nM. Further, the IC50 in series [2] (MDCK, 72 h) came out at 42 nM.
In series [3], `O[C@H]1CCCC[C@@H]1Nc1nc(-c2c[nH]c3ncncc23)ncc1F` (racemic) [Compound 58] returned a CC50 at 3 days of over 100000 nM. The same molecule registered a half-maximal inhibitory concentration (IC50) in series [2] (MDCK, 72 h) of 630 nM.
Turning to `O=C(O)[C@H]1C2CCC(CC2)[C@@H]1Nc1nc(-c2c[nH]c3ncncc23)ncc1F` (mixture of isomers) [Compound 54], the CC50 at 3 days in series [3] was over 25000 nM. This molecule registered an IC50 in series [2] (MDCK, 72 h) of 460 nM.
Turning to `Cn1cnc(C(=O)N[C@H]2CCC[C@@H](Nc3nc(-c4c[nH]c5ncncc45)ncc3F)C2)c1` [Compound 14], the CC50 at 3 days in series [3] was over 25000 nM. Besides, in series [2] (MDCK, 72 h), the IC50 came to 47 nM.
`CCC(=O)N[C@H]1CCC[C@@H](Nc2nc(-c3c[nH]c4ncncc34)ncc2F)C1` (racemic) [Compound 62] gave a CC50 at 3 days in series [3] of over 25000 nM. The molecule further registered an IC50 in series [2] (MDCK, 72 h) of 700 nM.
The matching figures for `N#Cc1cc(F)c(N[C@@H]2CCC[C@H](NC(=O)N3CCCC3)C2)nc1-c1c[nH]c2ncncc12` (stereo in doubt) [Compound 9, (+/−)-N-((cis)-3-((5-cyano-3-fluoro-6-(7H-pyrrolo[2,3-d]pyrimidin-5-yl)pyridin-2-yl)amino)cyclohexyl)pyrrolidine-1-carboxamide]: 8740 nM and 9 nM.
The matching figures for `CC(C)C(=O)N[C@H]1CCC[C@@H](Nc2nc(-c3c[nH]c4ncncc34)ncc2F)C1` (racemic) [Compound 73]: over 25000 nM and 930 nM.
`Cn1cnc(C(=O)N[C@@H]2CCC[C@@H](Nc3nc(-c4c[nH]c5ncncc45)c(C#N)cc3F)C2)c1` [Compound 12]: in series [3], the CC50 at 3 days is over 25000 nM. The same molecule registered an IC50 in series [2] (MDCK, 72 h) of 30 nM.
In series [3], `Cc1ncc2c(-c3ncc(F)c(N[C@@H]4CCC[C@H](NC(=O)N5CCCC5)C4)n3)c[nH]c2n1` [Compound 92] came in with a CC50 at 3 days of over 25000 nM. The molecule further had an IC50 in series [2] (MDCK, 72 h) of 180 nM.
`O=C(N[C@H]1CCC[C@@H](Nc2nc(C3CNc4ncncc43)ncc2F)C1)OCc1ccccc1` (stereo partly shown) [Compound 28] registered a CC50 at 3 days in series [3] of over 25000 nM. For the same molecule, in series [2] (MDCK, 72 h), the IC50 stood at 351 nM.
On to `Cc1cc(C(=O)N[C@@H]2CCC[C@@H](Nc3nc(-c4c[nH]c5ncncc45)ncc3F)C2)no1` (racemic) [Compound 34], for which the CC50 at 3 days in series [3] was over 25000 nM. In series [2] (MDCK, 72 h), this molecule gave an IC50 of 40 nM.
`CC1(C(CC(=O)O)Nc2nc(-c3c[nH]c4ncncc34)ncc2F)CCCC1` (stereo not shown) [Compound 53] gave a CC50 at 3 days in series [3] of over 25000 nM. Besides, in series [2] (MDCK, 72 h), the IC50 stood at 650 nM.
In series [3], `O=C(N[C@H]1CCC[C@@H](Nc2nc(-c3c[nH]c4ncncc34)ncc2F)C1)C1CC1` (racemic) [Compound 39] returned a CC50 at 3 days of over 25000 nM. In series [2] (MDCK, 72 h), this molecule displayed an IC50 of 114 nM.
